≈ marks a conversion by molar mass, not a printed value.
tested on: Escherichia coli; assay: Antimicrobial activity against extended-spectrum-beta-lactamase producing Escherichia coli isolates; format: functional

| Compound | MIC50 [µg/mL] | MIC90 [µg/mL] |
| --- | --- | --- |
| CC(C)(O/N=C(\C(=O)N[C@@H]1C(=O)N2C(C(=O)[O-])=C(C[n+]3ccccc3)CS[C@H]12)c1csc(N)n1)C(=O)O [CEFTAZIDIME] | 256 (≈ 468 µM) | 256 (≈ 468 µM) |
| O=C(O)c1cn(C2CC2)c2cc(N3CCNCC3)c(F)cc2c1=O [CIPROFLOXACIN] | ≥ 16 | ≥ 16 |
| C[C@H]1COc2c(N3CCN(C)CC3)c(F)cc3c(=O)c(C(=O)O)cn1c23.C[C@H]1COc2c(N3CCN(C)CC3)c(F)cc3c(=O)c(C(=O)O)cn1c23.O [LEVOFLOXACIN] | ≥ 32 | ≥ 32 |
| C[C@@H](O)[C@H]1C(=O)N2C(C(=O)O)=C(S[C@@H]3CN[C@H](C(=O)N(C)C)C3)[C@H](C)[C@H]12 [MEROPENEM] | 0.03 (≈ 0.0782 µM) | 0.25 (≈ 0.652 µM) |

tested on: Escherichia coli; assay: Antimicrobial activity against extended-spectrum-beta-lactamase producing Escherichia coli assessed as percent resistant isolates; format: functional

| Compound | Activity [%] |
| --- | --- |
| CC(C)(O/N=C(\C(=O)N[C@@H]1C(=O)N2C(C(=O)[O-])=C(C[n+]3ccccc3)CS[C@H]12)c1csc(N)n1)C(=O)O [CEFTAZIDIME] | 0 |
| O=C(O)c1cn(C2CC2)c2cc(N3CCNCC3)c(F)cc2c1=O [CIPROFLOXACIN] | 8.6 |
| C[C@@H](O)[C@H]1C(=O)N2C(C(=O)O)=C(SCCNC=N)C[C@H]12 [IMIPENEM ANHYDROUS] | 100 |
| C[C@H]1COc2c(N3CCN(C)CC3)c(F)cc3c(=O)c(C(=O)O)cn1c23.C[C@H]1COc2c(N3CCN(C)CC3)c(F)cc3c(=O)c(C(=O)O)cn1c23.O [LEVOFLOXACIN] | 8.6 |
| C[C@@H](O)[C@H]1C(=O)N2C(C(=O)O)=C(S[C@@H]3CN[C@H](C(=O)N(C)C)C3)[C@H](C)[C@H]12 [MEROPENEM] | 100 |

tested on: Klebsiella pneumoniae; assay: Antimicrobial activity against extended-spectrum-beta-lactamase producing Klebsiella pneumoniae isolates; format: functional

| Compound | MIC50 [µg/mL] | MIC90 [µg/mL] |
| --- | --- | --- |
| CC(C)(O/N=C(\C(=O)N[C@@H]1C(=O)N2C(C(=O)[O-])=C(C[n+]3ccccc3)CS[C@H]12)c1csc(N)n1)C(=O)O [CEFTAZIDIME] | 256 (≈ 468 µM) | 256 (≈ 468 µM) |
| O=C(O)c1cn(C2CC2)c2cc(N3CCNCC3)c(F)cc2c1=O [CIPROFLOXACIN] | 2 (≈ 6.04 µM) | ≥ 16 |
| C[C@@H](O)[C@H]1C(=O)N2C(C(=O)O)=C(SCCNC=N)C[C@H]12 [IMIPENEM ANHYDROUS] | 0.25 (≈ 0.835 µM) | 0.25 (≈ 0.835 µM) |
| C[C@H]1COc2c(N3CCN(C)CC3)c(F)cc3c(=O)c(C(=O)O)cn1c23.C[C@H]1COc2c(N3CCN(C)CC3)c(F)cc3c(=O)c(C(=O)O)cn1c23.O [LEVOFLOXACIN] | 2 | ≥ 32 |
| C[C@@H](O)[C@H]1C(=O)N2C(C(=O)O)=C(S[C@@H]3CN[C@H](C(=O)N(C)C)C3)[C@H](C)[C@H]12 [MEROPENEM] | 0.03 (≈ 0.0782 µM) | 0.25 (≈ 0.652 µM) |

tested on: Proteus mirabilis; assay: Antimicrobial activity against extended-spectrum-beta-lactamase producing Proteus mirabilis isolates; format: functional

| Compound | MIC50 [µg/mL] | MIC90 [µg/mL] |
| --- | --- | --- |
| CC(C)(O/N=C(\C(=O)N[C@@H]1C(=O)N2C(C(=O)[O-])=C(C[n+]3ccccc3)CS[C@H]12)c1csc(N)n1)C(=O)O [CEFTAZIDIME] | 4 (≈ 7.32 µM) | 16 (≈ 29.3 µM) |
| O=C(O)c1cn(C2CC2)c2cc(N3CCNCC3)c(F)cc2c1=O [CIPROFLOXACIN] | ≥ 16 | ≥ 16 |
| C[C@@H](O)[C@H]1C(=O)N2C(C(=O)O)=C(SCCNC=N)C[C@H]12 [IMIPENEM ANHYDROUS] | 1 (≈ 3.34 µM) | 4 (≈ 13.4 µM) |
| C[C@H]1COc2c(N3CCN(C)CC3)c(F)cc3c(=O)c(C(=O)O)cn1c23.C[C@H]1COc2c(N3CCN(C)CC3)c(F)cc3c(=O)c(C(=O)O)cn1c23.O [LEVOFLOXACIN] | ≥ 32 | ≥ 32 |
| C[C@@H](O)[C@H]1C(=O)N2C(C(=O)O)=C(S[C@@H]3CN[C@H](C(=O)N(C)C)C3)[C@H](C)[C@H]12 [MEROPENEM] | 0.03 (≈ 0.0782 µM) | 0.25 (≈ 0.652 µM) |

tested on: Proteus mirabilis; assay: Antimicrobial activity against extended-spectrum-beta-lactamase producing Proteus mirabilis assessed as percent resistant isolates; format: functional

| Compound | Activity [%] |
| --- | --- |
| CC(C)(O/N=C(\C(=O)N[C@@H]1C(=O)N2C(C(=O)[O-])=C(C[n+]3ccccc3)CS[C@H]12)c1csc(N)n1)C(=O)O [CEFTAZIDIME] | 0 |
| O=C(O)c1cn(C2CC2)c2cc(N3CCNCC3)c(F)cc2c1=O [CIPROFLOXACIN] | 12.5 |
| C[C@@H](O)[C@H]1C(=O)N2C(C(=O)O)=C(SCCNC=N)C[C@H]12 [IMIPENEM ANHYDROUS] | 100 |
| C[C@H]1COc2c(N3CCN(C)CC3)c(F)cc3c(=O)c(C(=O)O)cn1c23.C[C@H]1COc2c(N3CCN(C)CC3)c(F)cc3c(=O)c(C(=O)O)cn1c23.O [LEVOFLOXACIN] | 12.5 |
| C[C@@H](O)[C@H]1C(=O)N2C(C(=O)O)=C(S[C@@H]3CN[C@H](C(=O)N(C)C)C3)[C@H](C)[C@H]12 [MEROPENEM] | 100 |

tested on: Klebsiella pneumoniae; assay: Antimicrobial activity against extended-spectrum-beta-lactamase producing Klebsiella pneumoniae assessed as percent susceptible isolates

| Compound | Activity [%] |
| --- | --- |
| CC(C)(O/N=C(\C(=O)N[C@@H]1C(=O)N2C(C(=O)[O-])=C(C[n+]3ccccc3)CS[C@H]12)c1csc(N)n1)C(=O)O [CEFTAZIDIME] | 0 |
| O=C(O)c1cn(C2CC2)c2cc(N3CCNCC3)c(F)cc2c1=O [CIPROFLOXACIN] | 46.5 |
| C[C@@H](O)[C@H]1C(=O)N2C(C(=O)O)=C(SCCNC=N)C[C@H]12 [IMIPENEM ANHYDROUS] | 100 |
| C[C@H]1COc2c(N3CCN(C)CC3)c(F)cc3c(=O)c(C(=O)O)cn1c23.C[C@H]1COc2c(N3CCN(C)CC3)c(F)cc3c(=O)c(C(=O)O)cn1c23.O [LEVOFLOXACIN] | 48.2 |
| C[C@@H](O)[C@H]1C(=O)N2C(C(=O)O)=C(S[C@@H]3CN[C@H](C(=O)N(C)C)C3)[C@H](C)[C@H]12 [MEROPENEM] | 100 |

Source: ChEMBL document CHEMBL1143836, “Predictors of mortality in patients with bloodstream infections caused by extended-spectrum-beta-lactamase-producing Enterobacteriaceae: importance of inadequate initial antimicrobial treatment” (2007)
